Patent US20220184008A1, “MODULATORS OF INTRACELLULAR CHLORIDE CONCENTRATION” (FONDAZIONE ISTITUTO ITALIANO DI TECNOLOGIA, priority 2019, published 2022)

Experiments:
[1] = Phase I metabolism in liver microsomes; assay type: in vitro ADME; conditions: read-out: t½ in liver microsomes
Method: (§1) FIG. 3: Assessment of drug-likeness of a selected compound, compound 3.17. a) Chemicophysical properties of bumetanide and compound 3.17 by LC-MS analysis. b) Comparison between urinary volume of WT mice (C57Bl/6N) two hours after treatment with bumetanide (0.2 mg/kg) and compound 3.17 (0.2 mg/kg). c) Assessment of urinary volume of Ts65Dn mouse model of Down syndrome and WT littermates two hours after treatment with compound 3.17 (0.2 mg/kg). Number in parenthesis: number of analyzed animals. Data represents mean±sem, and they are presented as % of the respective vehicle.
(§2) The selected NKCC1 inhibitor compound 3.17 has been evaluated for solubility in aqueous buffers, and stability in plasma and phase I metabolism in vitro (FIG. 3a).

[2] = test system: valproic acid (VPA)-induced mouse model of autism; experiment: VPA-induced mouse model of autism (three-chamber, male-female interaction, marble burying, grooming); assay type: in vivo; conditions: VPA mice, 0.2 mg/kg i.p. seven days
From the text: Right panel, quantification of the social novelty index in mice treated with vehicle (WT, n=15, VPA, n=10) or 3.17 (WT, n=9, VPA, n=12); two-way ANOVA, Tukey's post hoc test, *P<0.05, **P<0.01. (b) Quantification of the interaction time in mice treated with vehicle (WT, n=15, VPA, n=10) or 3.17 (WT, n=10, VPA, n=11); two-way ANOVA, Tukey's post hoc test, **P<0.01. (c) Quantification of the number of marbles buried by mice treated with vehicle (WT, n=17, VPA, n=17) or 3.17 (WT, n=13, VPA, n=13); two-way ANOVA, Tukey's post hoc test, *P<0.05, **P<0.01. (d) Quantification of grooming time for mice treated with vehicle (WT, n=20, VPA, n=17) or 3.17 (WT, n=13, VPA, n=13); two-way ANOVA on Ranks, Tukey's post hoc test, *P<0.05, **P<0.01.
In vivo assessment of the efficacy of the selected NKCC1 inhibitor in the valproic acid (VPA)-induced mouse model of autism, to assess its ability to rescue altered social interaction. The VPA model was obtained by treating pregnant C57bl/6j dams at 12.5 days of pregnancy with 600 mg/kg (i.p.) of VPA dissolved in PBS. […] As control, the offspring of C57bl/6j dams treated at 12.5 with PBS was used. To assess the efficacy of the compound to restore social deficits, juvenile male offspring of both the VPA- and PBS-treated dams were treated (i.p injection) with 0.2 mg/kg of compound 3.17 dissolved in PBS or 2% DMSO dissolved in PBS as control for seven days. Then, mice were tested for their social ability and for repetitive behaviors in different tests. The social ability was tested in the three-chamber test (Silverman et al., 2010). In the three-chamber test, mice are singularly placed in a three-chamber box with openings between the chambers. After ten minutes of free exploration, a never-before-met intruder is placed under one pencil cup in one chamber and an empty pencil cup was placed in the other chamber. […] The social novelty index is measured as follows: [(time spent with the new intruder−time spent with the old intruder)/(time spent with the new intruder+time spent with the old intruder) %].
The sociability during male-female interaction was then assessed (Drapeau et al., 2018). In this test the tested mouse, after 5 minutes of habituation, is evaluated for its approach to a female intruder mouse that is placed for 5 minutes in the same cage. The time spent interacting is calculated as a measure of male-female social interaction. […] Finally, repetitive behaviors were evaluated in two different tests. […] The repetitive behavior is evaluated as the number of marbles buried in the litter. […] During the test, the mouse is placed in a cylindrical support and after 10 minutes of habituation, the repetitive grooming activity is measured during 5 minutes.

Stability in plasma = assay type: in vitro ADME; conditions: resistance to hydrolysis, read-out: t½ in plasma
Method: as §1, §2

half-life [1]: > 1 h | half-life (Stability in plasma): > 2 h
SMILES: CN(C)S(=O)(=O)c1cc(C(=O)O)ccc1NCCCCCCCC(F)(F)F [Compound 3.17, 3-(dimethylsulfamoyl)-4-(8,8,8-trifluorooctylamino) benzoic acid]
male-female interaction [2]: completely restored | repetitive behaviors (marbles buried, grooming time) [2]: completely restored | sociability index ([2]; three-chamber test): completely restored | social novelty index ([2]; three-chamber test): completely restored
